# pIC50: −log10 of the molar value. Where “and” joins values, the source holds several entries; their conditions need not be identical. Equal entries are not always repeated.
# Experiments:
# [1] = system: ubiquitination levels, polyubiquitination of p21; experiment: Ubiquitination detection / p21 immunoprecipitation; assay type: cell-based, human; settings: 5 μM, 8 hours
# Procedure: Protein extracts were loaded onto SDS polyacrylamide gels. Gels were transferred onto nitrocellulose membranes, and the membranes were blocked for 1 hour. After overnight incubation with primary antibody at 4°C, the membranes were washed and probed with fluorescent IRDye 800 CW goat anti-rabbit IgG (1:10,000), IRDye 800 CW goat anti-mouse (1:10,000), and IRDye 680 RD goat anti-mouse IgG (1:5,000) antibodies (Cell Signaling Technology). The membranes were then imaged with the Odyssey Infrared Imaging System (LI-COR Biosciences). The primary antibodies used were mouse anti–β-actin (MBL, M177-3), rabbit anti-REGγ (Abcam, ab157157), rabbit anti-KRAS (Abcam, ab275876), rabbit anti-NRF2 (Abcam, ab137550), mouse anti-GAPDH (Proteintech, 60004-1-Ig), anti-FLAG tag (Solarbio, K200001M), anti-HA tag (Abcam, ab9110), rabbit anti-α7 (Abcam, ab133502), rabbit anti-LATS1 (Cell Signaling Technology, 3477), rabbit anti-IκBε (Abcam, ab13413), rabbit anti-p16 (Proteintech, 10883-1-AP), mouse anti-p21 (BD Biosciences, 612234), rabbit anti-PARP (Cell Signaling Technology, 9542), and rabbit anti–caspase-3 ([…], 9662).
# Cells were washed with PBS and lysed with RIPA lysis buffer (50 mM Tris-HCl [pH 7.5], 150 mM NaCl, 1% NP-40, and 0.1% SDS). Cell lysates were then centrifuged for 20 minutes at 13,400g at 4°C. […]
# Pharmacokinetics study = assay type: in vivo; settings: plasma, 20 mg/kg single i.p. dose, male BALB/c mice
# Procedure: Pharmacokinetics of RLY01 was analyzed in male BALB/c mice (n = 3). Plasma concentration was determined using liquid chromatography–tandem mass spectrometry (LC-MS/MS) after a single intraperitoneal injection dose (20 mg/kg, i.p.) of a compound as a clear solution (2% DMSO plus 2% Tween-80 plus 96% saline) at a volume of 10 mL/kg. Blood samples were collected into a heparinized test tube at each time point (0.083, 0.25, 0.5, 1.0, 2.0, 4.0, 8.0, and 24 hours) and centrifuged at 8,000g for 10 minutes to generate plasma samples. The blood samples were temporarily put on ice. Plasma samples were put on dry ice for 2 hours and transferred to –20°C. After the completion of the last sampling, all samples were stored at –80°C. LC-MS/MS methods to quantify compound in plasma samples were developed. The samples were analyzed with an Agilent 1290 Infinity II HPLC system coupled to a 6470 LC/TQ mass spectrometer (Agilent), which was equipped with an Applied Biosystems electrospray ionization source and operated with Analysis of Mass Hunter Workstation Data Acquisition (Agilent). Chromatographic separation was fitted with an Agilent Poroshell 120 EC-C18, 2.1 × 50 mm, 1.9 μm column. The mobile phase consisted of 0.1% formic acid in water and 0.1% formic acid in acetonitrile (ACN). Standard curves for drug quantification were prepared by spiking known concentrations of the compound into control plasma. […]
# HCT116 cells (HCT116-WT) = experiment: Cell viability assay (CCK-8); assay type: cell-based, human; settings: for cell viability: HCT116-WT, in % (unit assumed); for pIC50: Homo sapiens
# Procedure: (§4) Cells were seeded into 96-well plates at a density of 1,500 cells per well. Cells were then cultivated at 37°C for different periods (0 hours, 24 hours, 48 hours, 72 hours, 96 hours). Upon measurement, 10 μL CCK-8 (Yeasen, 40203ES80) mixed with 100 μL serum-free medium was added to each well and incubated for 1 hour at 37°C. Plates were shaken, and optical density values were determined at 450 nm using a microplate reader (BioTek, Synergy Neo2).
# SW620 cells = experiment: Cell viability assay (CCK-8); assay type: cell-based; settings: Homo sapiens, SW-620; SW620, Colon; Supplemental Table 4
# Procedure: as §4
# [2] = system: Calu1 cells infected with KRAS G12C; experiment: cells; assay type: cell-based, human
# Procedure: (A and B) Cell viability assays performed with Calu1 cells infected
# with retrovirus packaging KRAS (G12C, G12C/G13D or G12C/Y96D). Cell lines were
# measured with CellTiter-Glo. (C and D) Calu1-KRASG13D (C) and Calu1- KRASY96D
# (KRASG12C inhibitor) alone or in combination for 72 hours, and the cell viability was
# Calu1-KRASG13D cells = experiment: Colony formation assay, RLY01 and AMG510; assay type: cell-based, human
# Procedure: (§1) Cells were equally seeded into 12-well plates at a density of 2,000 cells per well. Cultivated for 6–10 days, cells were fixed with 4% polyoxymethylene and stained with 0.2% crystal violet. Images of stained colonies were taken, and the numbers of the colonies were recorded and compared within different groups. Each experiment was representative of at least 3 independent experiments. […]
# (§2) by using CompuSyn software (Version 1). The averages and error bars represent the mean ± SEM from three independent experiments. (E-H) Representative colony formation images of Calu1, Calu1- KRASG13D and Calu1- KRASY96D cells (E) and H358, H358- KRASG13D and H358- KRASY96D cells (G) cell with or without RLY01 and […]
# (§3) controls. Each value represents mean ± SEM (n = 3). *p < 0.05, **p < 0.01, ***p < 0.001, ****p < 0.0001; p values were measured by two-way ANOVA with Tukey’s multiple-comparisons test.
# Calu1-KRASY96D cells = experiment: Colony formation assay, RLY01 and AMG510; assay type: cell-based, human
# Procedure: as §1, §2, §3
# H358-KRASG13D cells = experiment: Colony formation assay, RLY01 and AMG510; assay type: cell-based, human
# Procedure: as §1, §2, §3
# H358-KRASY96D cells = experiment: Colony formation assay, RLY01 and AMG510; assay type: cell-based, human
# Procedure: as §1, §2, §3
compound,measurement,setting,value
COc1ccc(C2C(C#N)=C(N)Oc3[nH]ncc32)cc1COc1ccc(Cl)cc1 (stereo not drawn) [RLY01],polyubiquitination level of p21,[1]; anti-p21 immunoprecipitation,did not alter the polyubiquitination level of p21
same,ubiquitination levels,[1]; HCT116-WT cells,did not affect ubiquitination levels
same,half-life,"Pharmacokinetics study; mouse, ip",4.14 h
same,maximum concentration,Pharmacokinetics study,"6,440 ng/mL"
same,cell viability,HCT116 cells (HCT116-WT); concentration 0.01,96.2742 and 115.648 and 112.966
same,cell viability,HCT116 cells (HCT116-WT); concentration 0.03,107.899 and 112.221 and 102.981
same,cell viability,HCT116 cells (HCT116-WT); concentration 0.1,120.566 and 116.095 and 100.298
same,cell viability,HCT116 cells (HCT116-WT); concentration 0.3,102.683 and 114.456 and 114.158
same,cell viability,HCT116 cells (HCT116-WT); concentration 1,97.1684 and 95.5291 and 97.4665
same,cell viability,HCT116 cells (HCT116-WT); concentration 3,92.2504 and 98.0626 and 87.7794
same,cell viability,HCT116 cells (HCT116-WT); concentration 10,48.5842 and 45.3055 and 49.3294
same,cell viability,HCT116 cells (HCT116-WT); concentration 30,32.6379 and 31.7437 and 32.1908
same,cell viability,HCT116 cells (HCT116-WT); concentration 100,28.465 and 28.0179 and 28.2414
same,pIC50,"HCT116 cells (HCT116-WT); HCT-116, 72 h, HCT116 (KRAS-MUT), 72 hours",5.24
same,pIC50,"HCT116 cells (HCT116-WT); HCT-116, HCT116, Colon, Supplemental Table 4",5.24
same,pIC50,"HCT116 cells (HCT116-WT); HCT-116, HCT116-WT, Figure 5F",5.18
same,pIC50,SW620 cells,5.22
same,cell viability,"[2]; Calu1, 0.390625 μM, 0.390625 µM",102.753 and 93.4181
same,cell viability,"[2]; Calu1, 0.78125 μM, 0.78125 µM",107.421 and 102.032
same,cell viability,"[2]; Calu1, 1.5625 μM, 1.5625 µM",95.8437 and 90.7303
same,cell viability,"[2]; Calu1, 3.125 μM, 3.125 µM",96.3551 and 85.8136
same,cell viability,"[2]; Calu1, 6.25 μM, 6.25 µM",67.1693 and 71.5484
same,cell viability,"[2]; Calu1, 12.5 μM, 12.5 µM",52.9959 and 57.0473
same,cell viability,"[2]; Calu1, 25 μM, 25 µM",46.8992 and 44.4474
same,cell viability,"[2]; Calu1, 50 μM, 50 µM",35.3612 and 29.2251
same,cell viability,"[2]; Calu1, 100 μM, 100 µM",20.4537 and 21.2928
same,viability at 0.390625 µM,"[2]; Homo sapiens, Calu-1, read-out: cell viability, Calu1, 0.390625 μM",104%
same,viability at 0.78125 µM,"[2]; Homo sapiens, Calu-1, read-out: cell viability, Calu1, 0.78125 μM",90.3%
same,viability at 1.5625 µM,"[2]; Homo sapiens, Calu-1, read-out: cell viability, Calu1, 1.5625 μM",97%
same,viability at 3.125 µM,"[2]; Homo sapiens, Calu-1, read-out: cell viability, Calu1, 3.125 μM",96.9%
same,viability at 6.25 µM,"[2]; Homo sapiens, Calu-1, read-out: cell viability, Calu1, 6.25 μM",69.8%
same,viability at 12.5 µM,"[2]; Homo sapiens, Calu-1, read-out: cell viability, Calu1, 12.5 μM",53.6%
same,viability at 25 µM,"[2]; Homo sapiens, Calu-1, read-out: cell viability, Calu1, 25 μM",47.7%
same,viability at 50 µM,"[2]; Homo sapiens, Calu-1, read-out: cell viability, Calu1, 50 μM",31.6%
same,viability at 100 µM,"[2]; Homo sapiens, Calu-1, read-out: cell viability, Calu1, 100 μM",21.2%
same,colony formation relative to DMSO,Calu1-KRASG13D cells,40.0491 and 33.3365 and 29.5412
same,colony formation relative to DMSO,Calu1-KRASY96D cells,40.6617 and 32.1848 and 24.6924
same,colony formation relative to DMSO,H358-KRASG13D cells,21.187 and 26.3594 and 20.6399
same,colony formation relative to DMSO,H358-KRASY96D cells,23.2509 and 24.3365 and 19.813

# Reference: PMC11910216, “Targeting ubiquitin-independent proteasome with small molecule increases susceptibility in pan-KRAS–mutant cancer models” (The Journal of Clinical Investigation, 2025)
